Test results taken from ChEMBL document CHEMBL2163280 (J Med Chem, 2012).
Active and inactive are the calls of the source. No cut-off for these calls is given here.

Columns and labels:
[1] = target: Acetylcholine receptor; alpha1/beta1/delta/gamma (Homo sapiens) (UniProt P02708+P07510+P11230+Q07001); assay: Agonist activity at alpha1betagammadelta nACHR in human TE671/RD cells by 86Rb+ efflux assay; assay type: functional, cell-based
[2] = target: Neuronal acetylcholine receptor; alpha4/beta2 (Rattus norvegicus, UniProt P09483+P12390); assay: Displacement of [3H]epibatidine from rat alpha4beta2 nACHR; assay type: protein-complex assay
[3] = target: Neuronal acetylcholine receptor; alpha3/beta4 (Rattus norvegicus, UniProt P04757+P12392); assay: Displacement of [3H]epibatidine from rat alpha3beta4 nACHR; assay type: protein-complex assay
Chain of Neuronal acetylcholine receptor; alpha3/beta4 (P04757 whole entry): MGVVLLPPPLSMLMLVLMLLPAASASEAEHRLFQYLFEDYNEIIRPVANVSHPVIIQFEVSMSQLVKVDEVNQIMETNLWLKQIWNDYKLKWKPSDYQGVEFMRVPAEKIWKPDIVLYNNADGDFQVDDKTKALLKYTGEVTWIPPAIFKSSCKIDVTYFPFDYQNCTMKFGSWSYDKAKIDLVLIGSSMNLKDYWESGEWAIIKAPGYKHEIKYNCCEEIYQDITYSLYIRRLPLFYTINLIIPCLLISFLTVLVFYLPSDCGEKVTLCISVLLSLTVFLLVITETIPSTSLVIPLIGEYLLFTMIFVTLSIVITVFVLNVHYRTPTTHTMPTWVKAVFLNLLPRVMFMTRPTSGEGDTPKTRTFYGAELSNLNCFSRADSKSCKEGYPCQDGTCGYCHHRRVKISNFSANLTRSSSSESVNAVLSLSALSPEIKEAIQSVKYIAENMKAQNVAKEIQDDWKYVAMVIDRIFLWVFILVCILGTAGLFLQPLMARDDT
Chain of Neuronal acetylcholine receptor; alpha3/beta4 (P12392 whole entry): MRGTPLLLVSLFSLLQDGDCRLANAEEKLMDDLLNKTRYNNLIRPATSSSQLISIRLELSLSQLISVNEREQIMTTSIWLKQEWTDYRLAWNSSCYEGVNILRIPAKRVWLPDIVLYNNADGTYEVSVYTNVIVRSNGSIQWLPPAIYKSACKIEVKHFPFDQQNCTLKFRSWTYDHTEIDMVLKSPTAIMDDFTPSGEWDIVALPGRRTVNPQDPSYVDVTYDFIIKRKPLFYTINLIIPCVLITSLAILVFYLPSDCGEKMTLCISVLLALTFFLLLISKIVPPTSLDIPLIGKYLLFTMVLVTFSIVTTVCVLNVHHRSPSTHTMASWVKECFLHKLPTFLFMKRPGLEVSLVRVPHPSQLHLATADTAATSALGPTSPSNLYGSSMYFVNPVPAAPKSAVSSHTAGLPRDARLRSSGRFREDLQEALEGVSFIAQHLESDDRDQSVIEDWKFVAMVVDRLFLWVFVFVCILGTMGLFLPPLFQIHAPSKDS

[4] = target: Neuronal acetylcholine receptors; alpha-3/beta-4, alpha-5, beta-2 (Homo sapiens) (UniProt P17787+P30926+P32297+P30532); assay: Agonist activity at alpha3beta4alpha5beta2 nACHR in human SH-SY5Y cells at 10 uM by 86Rb+ efflux assay; assay type: functional, cell-based
Chain of Neuronal acetylcholine receptors; alpha-3/beta-4, alpha-5, beta-2 (Homo sapiens) (P17787 whole entry, looked up): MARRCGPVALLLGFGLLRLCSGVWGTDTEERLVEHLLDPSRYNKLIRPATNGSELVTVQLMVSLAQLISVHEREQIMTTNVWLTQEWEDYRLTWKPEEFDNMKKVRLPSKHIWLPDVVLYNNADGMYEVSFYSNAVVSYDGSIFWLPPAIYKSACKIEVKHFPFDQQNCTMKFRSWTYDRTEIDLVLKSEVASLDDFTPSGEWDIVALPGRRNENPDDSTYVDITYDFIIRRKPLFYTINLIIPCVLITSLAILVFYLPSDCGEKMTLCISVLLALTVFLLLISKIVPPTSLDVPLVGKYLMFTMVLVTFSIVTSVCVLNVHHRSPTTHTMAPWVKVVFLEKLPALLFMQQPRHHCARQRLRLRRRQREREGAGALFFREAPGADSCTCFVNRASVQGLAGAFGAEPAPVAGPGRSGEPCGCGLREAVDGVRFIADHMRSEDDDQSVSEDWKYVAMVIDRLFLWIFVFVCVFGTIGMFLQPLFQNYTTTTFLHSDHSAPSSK
Chain of Neuronal acetylcholine receptors; alpha-3/beta-4, alpha-5, beta-2 (Homo sapiens) (P30532 whole entry, looked up): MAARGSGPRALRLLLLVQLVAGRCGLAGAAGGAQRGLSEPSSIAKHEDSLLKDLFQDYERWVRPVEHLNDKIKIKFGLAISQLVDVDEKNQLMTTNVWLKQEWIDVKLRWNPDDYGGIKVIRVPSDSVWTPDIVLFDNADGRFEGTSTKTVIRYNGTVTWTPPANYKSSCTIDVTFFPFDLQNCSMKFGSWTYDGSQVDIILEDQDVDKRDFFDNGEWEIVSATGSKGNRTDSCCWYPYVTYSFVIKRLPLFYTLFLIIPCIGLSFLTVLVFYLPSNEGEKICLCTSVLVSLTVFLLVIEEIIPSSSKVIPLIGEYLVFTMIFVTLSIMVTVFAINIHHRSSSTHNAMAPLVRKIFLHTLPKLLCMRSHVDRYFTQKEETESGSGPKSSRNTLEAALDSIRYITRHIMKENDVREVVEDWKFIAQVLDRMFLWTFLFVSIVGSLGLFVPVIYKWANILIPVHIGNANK
Chain of Neuronal acetylcholine receptors; alpha-3/beta-4, alpha-5, beta-2 (Homo sapiens) (P30926 whole entry, looked up): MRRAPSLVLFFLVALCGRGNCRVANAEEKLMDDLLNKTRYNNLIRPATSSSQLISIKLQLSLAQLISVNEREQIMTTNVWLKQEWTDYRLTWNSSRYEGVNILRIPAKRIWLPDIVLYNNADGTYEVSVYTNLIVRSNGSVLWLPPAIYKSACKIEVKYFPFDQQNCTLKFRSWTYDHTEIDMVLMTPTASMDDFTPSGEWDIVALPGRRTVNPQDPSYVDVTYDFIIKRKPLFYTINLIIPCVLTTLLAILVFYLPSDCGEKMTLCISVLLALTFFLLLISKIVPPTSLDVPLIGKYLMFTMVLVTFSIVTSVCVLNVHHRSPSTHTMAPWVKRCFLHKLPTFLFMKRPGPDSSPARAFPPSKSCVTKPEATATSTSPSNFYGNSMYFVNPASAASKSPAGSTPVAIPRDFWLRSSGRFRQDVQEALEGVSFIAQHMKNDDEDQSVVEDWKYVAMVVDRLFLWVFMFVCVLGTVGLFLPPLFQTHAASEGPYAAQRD
Chain of Neuronal acetylcholine receptors; alpha-3/beta-4, alpha-5, beta-2 (Homo sapiens) (P32297 whole entry, looked up): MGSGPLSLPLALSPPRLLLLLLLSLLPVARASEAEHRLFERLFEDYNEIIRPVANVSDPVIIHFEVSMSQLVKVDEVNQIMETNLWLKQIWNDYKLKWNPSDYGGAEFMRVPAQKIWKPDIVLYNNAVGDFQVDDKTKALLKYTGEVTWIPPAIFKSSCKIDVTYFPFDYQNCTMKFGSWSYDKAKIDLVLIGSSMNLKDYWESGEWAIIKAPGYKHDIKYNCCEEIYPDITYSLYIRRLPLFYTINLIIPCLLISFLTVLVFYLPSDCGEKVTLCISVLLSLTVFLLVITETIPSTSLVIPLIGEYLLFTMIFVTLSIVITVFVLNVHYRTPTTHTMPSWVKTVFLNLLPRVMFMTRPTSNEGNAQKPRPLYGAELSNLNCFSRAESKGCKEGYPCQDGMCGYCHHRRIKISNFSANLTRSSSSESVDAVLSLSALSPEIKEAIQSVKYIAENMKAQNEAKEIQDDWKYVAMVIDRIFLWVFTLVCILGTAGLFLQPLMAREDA

[5] = target: Neuronal acetylcholine receptor subunit alpha-7 (Rattus norvegicus, UniProt Q05941); assay: Binding affinity to rat alpha7 nACHR […]
Chain of Neuronal acetylcholine receptor subunit alpha-7 (Q05941 whole entry): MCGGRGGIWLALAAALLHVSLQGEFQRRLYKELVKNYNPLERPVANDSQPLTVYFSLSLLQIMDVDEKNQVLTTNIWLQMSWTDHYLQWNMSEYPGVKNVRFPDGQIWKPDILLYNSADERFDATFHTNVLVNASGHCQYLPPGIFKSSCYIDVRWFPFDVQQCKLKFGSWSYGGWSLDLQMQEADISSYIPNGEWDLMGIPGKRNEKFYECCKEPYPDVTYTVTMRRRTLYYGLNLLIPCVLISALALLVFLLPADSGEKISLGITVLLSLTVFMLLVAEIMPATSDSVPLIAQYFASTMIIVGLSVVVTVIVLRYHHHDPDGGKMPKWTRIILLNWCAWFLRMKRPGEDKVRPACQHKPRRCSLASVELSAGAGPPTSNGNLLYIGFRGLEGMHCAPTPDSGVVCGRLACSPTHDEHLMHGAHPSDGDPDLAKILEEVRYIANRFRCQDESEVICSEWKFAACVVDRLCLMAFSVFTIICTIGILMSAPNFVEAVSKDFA

[6] = target: Neuronal acetylcholine receptor; alpha4/beta4 (Rattus norvegicus, UniProt P09483+P12392); assay: Displacement of [3H]epibatidine from rat alpha4beta4 nACHR; assay type: protein-complex assay
Chain of Neuronal acetylcholine receptor; alpha4/beta4 (P09483 whole entry): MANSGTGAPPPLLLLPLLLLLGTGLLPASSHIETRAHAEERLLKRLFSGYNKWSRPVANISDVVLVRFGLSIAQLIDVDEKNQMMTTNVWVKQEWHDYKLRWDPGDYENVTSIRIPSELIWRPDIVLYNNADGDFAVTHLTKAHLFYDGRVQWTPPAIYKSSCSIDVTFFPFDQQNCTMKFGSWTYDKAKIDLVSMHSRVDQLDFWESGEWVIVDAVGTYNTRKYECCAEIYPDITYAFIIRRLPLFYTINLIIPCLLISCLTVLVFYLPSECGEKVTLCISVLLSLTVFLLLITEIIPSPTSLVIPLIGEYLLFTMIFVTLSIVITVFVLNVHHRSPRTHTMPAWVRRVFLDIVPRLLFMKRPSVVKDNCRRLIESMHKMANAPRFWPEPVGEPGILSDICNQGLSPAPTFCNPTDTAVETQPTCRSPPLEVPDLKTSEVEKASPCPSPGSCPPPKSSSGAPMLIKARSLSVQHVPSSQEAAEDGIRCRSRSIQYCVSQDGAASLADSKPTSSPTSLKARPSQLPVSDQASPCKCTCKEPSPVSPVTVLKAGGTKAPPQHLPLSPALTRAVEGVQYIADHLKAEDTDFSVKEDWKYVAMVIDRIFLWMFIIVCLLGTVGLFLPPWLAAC
Chain of Neuronal acetylcholine receptor; alpha4/beta4 (P12392 whole entry): as the sequence (P12392 whole entry) above

[7] = target: Neuronal acetylcholine receptor; alpha3/beta4 (Rattus norvegicus) (UniProt P04757+P12392); assay: Displacement of [3H]epibatidine from rat alpha3beta4 nACHR at 10 uM; assay type: protein-complex assay
[8] = target: Neuronal acetylcholine receptor; alpha4/beta4 (Rattus norvegicus) (UniProt P09483+P12392); assay: Displacement of [3H]epibatidine from rat alpha4beta4 nACHR at 10 uM; assay type: protein-complex assay
[9] = system: Neuronal acetylcholine receptor alpha2/beta2 rat; assay: Displacement of [3H]epibatidine from rat alpha2beta2 nACHR at 10 uM
[10] = species on record: Rattus norvegicus; assay: Displacement of [3H]epibatidine from rat forebrain alpha4beta2* nACHR at 10 uM
[11] = target: Neuronal acetylcholine receptor; alpha2/beta4 (Rattus norvegicus) (UniProt P12389+P12392); assay: Displacement of [3H]epibatidine from rat alpha2beta4 nACHR at 10 uM; assay type: protein-complex assay
[12] = target: Neuronal acetylcholine receptor; alpha3/beta2 (Rattus norvegicus) (UniProt P04757+P12390); assay: Displacement of [3H]epibatidine from rat alpha3beta2 nACHR at 10 uM; assay type: protein-complex assay
[13] = target: Neuronal acetylcholine receptor; alpha4/beta2 (Rattus norvegicus) (UniProt P09483+P12390); assay: Displacement of [3H]epibatidine from rat alpha4beta2 nACHR at 10 uM; assay type: protein-complex assay

## c1ccc(OCc2cc(OC[C@@H]3CCN3)on2)cc1
[1]
  Activity: inactive

## O=C(NC1CCCC1)OCc1cc(OC[C@@H]2CCN2)on1
[1]
  Activity: inactive

## c1ccc(NCc2cc(OC[C@@H]3CCN3)on2)cc1
[1]
  Activity: inactive

## c1cnc2cc3c(cc2n1)[C@@H]1CNC[C@H]3C1 [VARENICLINE]
[3]
  Ki: 86 nM
[1]
  Activity: inactive
[4]
  Efficacy: 110%
[5]
  Ki: 125 nM
[6]
  Ki: 110 nM

## OCc1cc(OC[C@@H]2CCN2)on1
[1]
  Activity: inactive

## O=C(Nc1ccccc1)OCc1cc(OC[C@@H]2CCN2)on1
[1]
  Activity: inactive

## Cc1cc(OC[C@@H]2CCCN2)on1
[1]
  Activity: inactive

## c1ccc(OCc2cc(OC[C@@H]3CCN3)no2)cc1
[7]
  Activity: < 50%
[8]
  Activity: < 50%
[1]
  Activity: inactive
[9]
  Activity: < 50%
[10]
  Activity: < 50%
[11]
  Activity: < 50%
[12]
  Activity: < 50%
[13]
  Activity: < 50%

## OCc1cc(OC[C@@H]2CCN2)no1
[1]
  Activity: inactive
